Data as given in patent publication US10669289B2, “Boronic acid derivatives” (MERCK PATENT GMBH, priority 2014, dated 2020).

How the values were obtained:
[1] = target: human immuno proteasome (LMP7) (Homo sapiens (Human), UniProt P28062); assay: Determination of LMP7 activity (fluorescence intensity assay, Suc-LLVY-AMC); assay type: biochemical
Summary of the method: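 Fluorogenic Suc-LLVY-AMC cleavage (40 μM substrate, 60 min, 37° C., ex 350/em 450 nm) measured after 0.25 nM human immunoproteasome was exposed to compound at 30 μM–15 pM. Preincubation was 20 min by default or 120 min (long) at 25° C., in Tris pH 7.4 with 0.03% SDS, 1 mM EDTA and 1% DMSO.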

[2] = target: human constitutive proteasome (Beta5) (Homo sapiens (Human), UniProt P28074); assay: Determination of Beta5 activity (fluorescence intensity assay, Suc-LLVY-AMC); assay type: biochemical
Summary of the method: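 Purified human constitutive proteasome (1.25 nM) preincubated with compounds (30 μM–15 pM) for 20 min (default) or 120 min at 25 °C in 50 mM Tris pH 7.4, 0.03% SDS, 1 mM EDTA, 1% DMSO. Suc-LLVY-AMC substrate at 40 μM, 60 min at 37 °C. Fluorescence read at ex 350/em 450 nm.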

[3] = LMP7 versus Beta5, long incubation (120 min)
[4] = LMP7 versus Beta5, incubation for 20 minutes

Compound | Selectivity LMP7 vs Beta5 [1, 3] | IC50 ([1]; long incubation (120 min)) | IC50 ([2]; long incubation (120 min)) | Selectivity LMP7 vs Beta5 [1, 4] | IC50 ([1]; incubation for 20 minutes) | IC50 ([2]; incubation for 20 minutes)
C=CC(=O)N(CC(=O)N[C@@H](Cc1ccsc1)B(O)O)c1ccccc1Cl [Compound No. 89, [(1R)-1-[[2-(2-chloro-N-prop-2-enoyl-anilino)acetyl]amino]-2-(3-thienyl)ethyl]boronic Acid] | +++++ (Selectivity ≥ 150) | 50 to 500 nM | > 5000 nM | – | – | –
C=CC(=O)N(CC(=O)N[C@@H](Cc1ccsc1)B(O)O)C1CC1 [Compound No. 90, [(1R)-1-[[2-[cyclopropyl(prop-2-enoyl)amino]acetyl]amino]-2-(3-thienyl)ethyl]boronic Acid] | +++++ (Selectivity ≥ 150) | < 50 nM | > 5000 nM | – | – | –
C=CC(=O)N(CC(=O)N[C@@H](C[C@H]1COc2c(C)cccc21)B(O)O)c1ccccc1F [Compound No. 91, [(1R)-1-[[2-(2-fluoro-N-prop-2-enoyl-anilino)acetyl]amino]-2-[(3R)-7-methyl-2,3-dihydrobenzofuran-3-yl]ethyl]boronic Acid] | – | – | – | +++++ (Selectivity ≥ 150) | 50 to 500 nM | > 5000 nM
C=CC(=O)N(CC(=O)N[C@@H](Cc1ccsc1)B(O)O)c1ccccc1 [Compound No. 92, [(1R)-1-[[2-(N-prop-2-enoylanilino)acetyl]amino]-2-(3-thienyl)ethyl]boronic Acid] | +++++ (Selectivity ≥ 150) | < 50 nM | > 5000 nM | – | – | –
C=CC(=O)N(CC(=O)NC(Cc1ccsc1)B(O)O)c1ccccc1CC (stereo not drawn) [Compound No. 93, [1-[[2-(2-ethyl-N-prop-2-enoyl-anilino)acetyl]amino]-2-(3-thienyl)ethyl]boronic Acid] | +++++ (Selectivity ≥ 150) | 50 to 500 nM | > 5000 nM | – | – | –
C=CC(=O)N(CC(=O)N[C@@H](Cc1ccsc1)B(O)O)c1cccc(CC)c1 [Compound No. 94, [(1R)-1-[[2-(3-ethyl-N-prop-2-enoyl-anilino)acetyl]amino]-2-(3-thienyl)ethyl]boronic Acid] | +++++ (Selectivity ≥ 150) | < 50 nM | > 5000 nM | – | – | –
C=CC(=O)N(CC(=O)N[C@@H](Cc1ccsc1)B(O)O)c1cc(Cl)cc(Cl)c1 [Compound No. 95, [(1R)-1-[[2-(3,5-dichloro-N-prop-2-enoyl-anilino)acetyl]amino]-2-(3-thienyl)ethyl]boronic Acid] | +++++ (Selectivity ≥ 150) | < 50 nM | > 5000 nM | – | – | –
C=CC(=O)N(CC(=O)N[C@@H](Cc1ccsc1)B(O)O)c1ccc(CC)cc1 [Compound No. 96, [(1R)-1-[[2-(4-ethyl-N-prop-2-enoyl-anilino)acetyl]amino]-2-(3-thienyl)ethyl]boronic Acid] | +++++ (Selectivity ≥ 150) | < 50 nM | 500 to 5000 nM | – | – | –
C=CC(=O)N(CC(=O)N[C@@H](Cc1ccsc1)B(O)O)c1ccc(Cl)c(Cl)c1 [Compound No. 97, [(1R)-1-[[2-(3,4-dichloro-N-prop-2-enoyl-anilino)acetyl]amino]-2-(3-thienyl)ethyl]boronic Acid] | +++++ (Selectivity ≥ 150) | < 50 nM | > 5000 nM | – | – | –
C=CC(=O)N(CC(=O)N[C@@H](Cc1cccc(F)c1)B(O)O)c1ccccc1F [Compound No. 98, [(1R)-2-(3-fluorophenyl)-1-[[2-(2-fluoro-N-prop-2-enoyl-anilino)acetyl]amino]ethyl]boronic Acid] | +++++ (Selectivity ≥ 150) | < 50 nM | > 5000 nM | – | – | –
C=CC(=O)N(CC(=O)N[C@@H](Cc1ccsc1)B(O)O)c1ccc(OC)c(OC)c1 [Compound No. 99, [(1R)-1-[[2-(3,4-dimethoxy-N-prop-2-enoyl-anilino)acetyl]-amino]-2-(3-thienyl)ethyl]boronic Acid] | +++++ (Selectivity ≥ 150) | < 50 nM | > 5000 nM | – | – | –
C=CC(=O)N(CC(=O)N[C@@H](C[C@@H]1COc2ccccc21)B(O)O)c1ccccc1F [Compound No. 100, [(1R)-2-[(3S)-2,3-dihydrobenzofuran-3-yl]-1-[[2-(2-fluoro-N-prop-2-enoyl-anilino)acetyl]amino]ethyl]boronic Acid] | +++++ (Selectivity ≥ 150) | < 50 nM | 500 to 5000 nM | – | – | –
C=CC(=O)N(CC(=O)N[C@@H](CCc1ccccc1)B(O)O)c1ccccc1F [Compound No. 101, [(1R)-1-[[2-(2-fluoro-N-prop-2-enoyl-anilino)acetyl]amino]-3-phenyl-propyl]boronic acid] | +++++ (Selectivity ≥ 150) | < 50 nM | > 5000 nM | – | – | –
C=CC(=O)N(CC(=O)N[C@@H](Cc1ccsc1)B(O)O)c1cccc(C(=O)N(C)C)c1 [Compound No. 102, [(1R)-1-[[2-[3-(dimethylcarbamoyl)-N-prop-2-enoyl-anilino]acetyl]amino]-2-(3-thienyl)ethyl]boronic Acid] | ++ (50 ≤ Selectivity < 70) | < 50 nM | 500 to 5000 nM | – | – | –
C=CC(=O)N(CC(=O)N[C@@H](Cc1ccsc1)B(O)O)c1ccc(C(=O)N(C)C)cc1 [Compound No. 103, [(1R)-1-[[2-[4-(dimethylcarbamoyl)-N-prop-2-enoyl-anilino]acetyl]amino]-2-(3-thienyl)ethyl]boronic Acid] | +++++ (Selectivity ≥ 150) | < 50 nM | 500 to 5000 nM | – | – | –
C=CC(=O)N(CC(=O)N[C@@H](Cc1cccs1)B(O)O)c1ccc(Br)cc1 [Compound No. 104, [(1R)-1-[[2-(4-bromo-N-prop-2-enoyl-anilino)acetyl]amino]-2-(2-thienyl)ethyl]boronic Acid] | +++++ (Selectivity ≥ 150) | < 50 nM | 500 to 5000 nM | – | – | –
CCN(CC(=O)N[C@@H](Cc1ccc(C)cc1C)B(O)O)C(=O)/C=C/CN(C)C [Compound No. 105, [(1R)-1-[[2-[[(E)-4-(dimethylamino)but-2-enoyl]-ethyl-amino]-acetyl]amino]-2-(2,4-dimethylphenyl)ethyl]boronic Acid] | +++++ (Selectivity ≥ 150) | < 50 nM | > 5000 nM | – | – | –
[(1R)-1-[[2-[but-2-ynoyl(propyl)amino]acetyl]amino]-2-(2,4-dimethylphenyl)ethyl]boronic Acid [Compound No. 3] | – | – | – | +++ (70 ≤ 100) | 50 to 500 nM | > 5000 nM
